Values of other authors, collected in paper PMC7070407, “Moringin, A Stable Isothiocyanate from Moringa oleifera, Activates the Somatosensory and Pain Receptor TRPA1 Channel In Vitro” (Molecules, 2020).
pEC50: −log10 of the molar value.

Target: T1, rat TRPA1 (Rattus norvegicus, UniProt Q6RI86)
T1 construct: expressed in transfected cells; host or cells: HEK-293
Set-up: method as in PMID 28903060
Conditions: TRPA1 in vitro; cited from earlier work

T1 sequence (Q6RI86 whole entry): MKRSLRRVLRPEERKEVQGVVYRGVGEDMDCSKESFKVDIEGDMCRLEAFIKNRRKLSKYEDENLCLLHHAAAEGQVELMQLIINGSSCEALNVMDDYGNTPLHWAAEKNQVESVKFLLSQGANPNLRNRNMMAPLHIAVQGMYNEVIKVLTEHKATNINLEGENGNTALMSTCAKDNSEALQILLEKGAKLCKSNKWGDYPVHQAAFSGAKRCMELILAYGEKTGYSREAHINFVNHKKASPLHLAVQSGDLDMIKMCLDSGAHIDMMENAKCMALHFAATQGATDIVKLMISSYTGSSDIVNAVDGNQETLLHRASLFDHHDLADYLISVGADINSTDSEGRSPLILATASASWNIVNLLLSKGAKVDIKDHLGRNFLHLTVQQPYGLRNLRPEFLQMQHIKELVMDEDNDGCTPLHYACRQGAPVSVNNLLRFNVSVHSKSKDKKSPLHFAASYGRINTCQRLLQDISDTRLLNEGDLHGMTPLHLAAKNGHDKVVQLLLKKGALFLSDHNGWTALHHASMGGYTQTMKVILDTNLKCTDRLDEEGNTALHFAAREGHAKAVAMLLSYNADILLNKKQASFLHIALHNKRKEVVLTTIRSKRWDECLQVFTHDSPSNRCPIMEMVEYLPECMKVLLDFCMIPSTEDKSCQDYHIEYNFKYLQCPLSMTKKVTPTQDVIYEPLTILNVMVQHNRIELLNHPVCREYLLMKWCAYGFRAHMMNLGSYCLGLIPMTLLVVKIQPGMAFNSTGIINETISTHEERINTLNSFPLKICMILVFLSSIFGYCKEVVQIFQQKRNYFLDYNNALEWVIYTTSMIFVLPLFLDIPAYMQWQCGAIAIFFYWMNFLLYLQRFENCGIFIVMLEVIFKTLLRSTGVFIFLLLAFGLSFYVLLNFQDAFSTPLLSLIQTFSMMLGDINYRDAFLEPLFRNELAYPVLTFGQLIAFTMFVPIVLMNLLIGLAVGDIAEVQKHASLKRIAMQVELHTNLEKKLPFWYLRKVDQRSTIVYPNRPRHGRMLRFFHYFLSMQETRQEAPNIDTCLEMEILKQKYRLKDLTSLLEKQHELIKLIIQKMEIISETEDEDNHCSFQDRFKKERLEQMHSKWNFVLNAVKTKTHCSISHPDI

In the case of COc1cc(/C=C/C(=O)CC(=O)/C=C/c2ccc(O)c(OC)c2)ccc1O [curcumin], the pEC50 is given as 5.48.
